Patent US20260137698A1, “CYCLIN-DEPENDENT KINASE 7 INHIBITORS” (JOINT STOCK COMPANY «BIOCAD», priority 2022, published 2026)

Legend:
[1] = test system: MDA-MB-468 (triple negative breast cancer); assay: Antiproliferative assay on MDA-MB-468 cells (AlamarBlue, 96 h); assay type: cell-based; conditions: Homo sapiens, mean value from several measurements
Method: The antiproliferative activity of CDK7 inhibitors according to the present invention was evaluated in a cell test using continuous cell cultures: MDA-MB-468 (triple negative breast cancer, ATCC® HTB-132™) and NCl-H82 (small cell lung cancer, ATCC® HTB-175™) using a viable AlamarBlue dye (Thermo Fisher Scientific Inc, order no. DAL1100). The cells were grown in DMEM (PanEco, order no. C330π) and RPMI-1640 (PanEco, order no. C330π), respectively. The basal growth medium was enriched with L-glutamine at a concentration of 2 mM (PanEco, order no. Φ032) and 10% fetal bovine serum (Gibco, order no. 16140-071). The night before measurement, MDA-MB-468 adherent cells were detached from plastic with a solution of trypsin-EDTA (PanEco, order no. Π039π), the solution was then inactivated by a DMEM complete medium, centrifuged at 1000 RPM (Eppendorf, 5804 R), a suspension of cells was prepared in a DMEM complete medium, introduced into 96-well culture plates (Corning Inc, order no. 3599) at 8×10^3 cells in 100 μl of medium per well. The next day, test compounds were dissolved in DMSO and diluted with a DMEM complete medium to a final concentration ranging from 50 μM to 10 pM. Diluted compounds in a volume of 50 μl were introduced into the plate wells with cells in triplicates (the final concentration of DMSO was no more than 1%) and incubated at 37° C. in an incubator with 5% CO2 for 96 hours. NCl-H82 suspension cell line was prepared on the day of the analysis. 10×10^3 cells in 100 μl of an RPMI-1640 complete medium were added to each well of a 96-well plate. The procedure for sample dilution is as described above. Cells with test compounds were incubated at 37° C. in an incubator with 5% CO2 for 120 hours. Following incubation, […] of AlamarBlue reagent (Thermo Fisher Scientific Inc., order no. DAL1100) was added to the wells, the contents of the plates were stirred in an orbital shaker (Biosan, Latvia), then further incubated for 5.5-6 hours at 37° C. in an incubator with 5% CO2. The number of viable cells was detected using the Infinite M200Pro microplate spectrophotometer (Tecan Group Ltd, Switzerland) by way of measuring a fluorescent signal at an excitation wavelength (λEx) of 540 nm and an emission wavelength (λEm) of 590 nm.
IC50 value was calculated using the Magellan software (Tecan Group Ltd, Switzerland) by approximating experimental points by four-parameter model with the optimization by Levenberg-Marquardt: […]

CDK2/Cyclin A = CDK2/Cyclin A (Homo sapiens, UniProt P24941); assay: Inhibition of CDK2/Cyclin A kinase activity (ADP-Glo); assay type: biochemical; conditions: mean value from several measurements; read-out: IC50 CDK2/Cyclin A
Method: (§1) Measurements were carried out in a 5 μl reaction volume using a 384-well plate (Corning Inc., order no. 4513). The analyzed substances were titrated from 50 μM in increments of 4 at 11 concentration points in a normal strength kinase buffer A (Thermo Fisher Scientific Inc, cat. no. PV3189) supplemented with DTT (Sigma, orde. no. 646563-10X.5ML) and prepared with water (Panreac, order no. 701074). Kinase was diluted in an analogous buffer, mixed with test compounds in plate wells and preincubated for 10 minutes at 25° C. Following incubation, a mixture of reaction substrate (CDKtide (SignalChem, order no. C06-58) or Histone H1 (SignalChem, order no. H10-54N) or PDKtide (SignalChem, order no. P10-58) and ATP (SignalChem, order no. V915B) prepared on a normal strength kinase buffer A was added. 1% solution of dimethyl sulfoxide (DMSO) (Sigma-Aldrich, order no. D2438) in the reaction volume was used as a negative control. The final concentrations of all reaction components are shown in Table 5. The plate was centrifuged at 400 rcf (Eppendorf, 5804 R) for 1 minute and incubated for 40-60 minutes at 25° C. The amount of ATP consumed in the kinase reaction was then measured using the ADP-Glo™ detection system. Luminescence signal was measured using Spark 20M tablet multifunction reader (Tecan Group Ltd, Switzerland). IC50 value was calculated using Magellan 7.2 (Tecan Group Ltd, Switzerland) by approximating experimental points by four-parameter model with the optimization by Levenberg-Marquardt:
(§2) [formula] • where A is the upper asymptote; D is the lower asymptote; C is IC50, half-maximal inhibitory concentration of kinase, nM; B is the curvature (slope).

CDK9/Cyclin K = CDK9/Cyclin K (Homo sapiens, UniProt P50750); assay: Inhibition of CDK9/Cyclin K kinase activity (ADP-Glo); assay type: biochemical; conditions: mean value from several measurements; read-out: IC50 CDK9/Cyclin K
CDK9/Cyclin K, sequence (P50750 whole entry): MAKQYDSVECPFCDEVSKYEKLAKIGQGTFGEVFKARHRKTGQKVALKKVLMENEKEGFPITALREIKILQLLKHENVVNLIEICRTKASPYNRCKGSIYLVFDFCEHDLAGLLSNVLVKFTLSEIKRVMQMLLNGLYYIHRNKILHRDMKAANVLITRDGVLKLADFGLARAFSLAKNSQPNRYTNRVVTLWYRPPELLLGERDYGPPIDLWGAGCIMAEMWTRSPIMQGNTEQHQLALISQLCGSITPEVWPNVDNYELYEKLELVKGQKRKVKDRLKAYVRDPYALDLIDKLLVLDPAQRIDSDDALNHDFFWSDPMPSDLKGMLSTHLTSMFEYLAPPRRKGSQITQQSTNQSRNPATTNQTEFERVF
CDK9/Cyclin K, sequence (O75909 whole entry partner): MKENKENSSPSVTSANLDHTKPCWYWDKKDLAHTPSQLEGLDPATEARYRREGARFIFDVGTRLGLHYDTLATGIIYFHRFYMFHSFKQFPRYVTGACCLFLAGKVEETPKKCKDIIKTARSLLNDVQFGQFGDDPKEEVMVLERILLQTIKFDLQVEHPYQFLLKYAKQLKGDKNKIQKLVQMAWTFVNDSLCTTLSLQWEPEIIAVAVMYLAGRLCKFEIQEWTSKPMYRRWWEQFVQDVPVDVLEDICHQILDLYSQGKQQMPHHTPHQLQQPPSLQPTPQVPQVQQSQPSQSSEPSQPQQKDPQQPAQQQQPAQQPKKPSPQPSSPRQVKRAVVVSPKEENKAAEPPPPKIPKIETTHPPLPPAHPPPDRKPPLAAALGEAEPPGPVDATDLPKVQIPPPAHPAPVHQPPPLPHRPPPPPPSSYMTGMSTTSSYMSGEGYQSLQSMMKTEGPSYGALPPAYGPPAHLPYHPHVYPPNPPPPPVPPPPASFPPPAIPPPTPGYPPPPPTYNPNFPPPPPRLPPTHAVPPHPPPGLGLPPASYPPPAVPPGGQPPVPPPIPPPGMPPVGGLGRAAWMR
Method: as §1, §2

[2] = General cytotoxicity on primary differentiated HepaRG cells (72 h); assay type: cell-based; conditions: human, general toxicity, mean value from several measurements
Source text: General cytotoxicity of CDK7 inhibitors according to the present invention was investigated using primary differentiated HepaRG cells (Biopredic Int, order no. HPR101). A week before the measurement, the cells were thawed and maintained in Basal hepatic cell medium (Biopredic Int, order no. MIL700079) supplemented with HepaRG maintenance/metabolism medium supplement with antibiotics (Biopredic Int, order no. ADD620C). The medium in vials with cells was changed every 2-3 days. The night before the test, the cells were plated in wells of 96-well plates (Corning Inc., order no. 3599) at 25×10^3 cells in 100 μl of medium per well. The next day, test compounds were introduced into plate wells with cells, untitrated at a concentration ranging from 200 μM to 0.2 nM, and incubated for 72 hours. Cell viability was assessed as described above.

CDK7/Cyclin H/MNAT1 = CDK7/Cyclin H/MNAT1 (Homo sapiens, UniProt P50613); assay: Inhibition of CDK7/Cyclin H/MNAT1 kinase activity (ADP-Glo); assay type: biochemical; conditions: mean value from several measurements; read-out: IC50 CDK7/Cyclin H/MNAT
CDK7/Cyclin H/MNAT1, sequence (P50613 whole entry): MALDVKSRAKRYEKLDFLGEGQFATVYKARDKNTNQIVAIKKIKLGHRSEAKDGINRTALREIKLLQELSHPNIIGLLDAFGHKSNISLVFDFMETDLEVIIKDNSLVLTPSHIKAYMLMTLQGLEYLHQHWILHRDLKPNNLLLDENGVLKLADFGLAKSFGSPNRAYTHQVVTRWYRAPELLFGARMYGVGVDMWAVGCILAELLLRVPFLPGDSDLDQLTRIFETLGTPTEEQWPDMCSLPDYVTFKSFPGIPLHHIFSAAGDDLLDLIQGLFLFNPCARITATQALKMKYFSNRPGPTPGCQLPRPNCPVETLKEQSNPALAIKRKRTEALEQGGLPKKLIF
CDK7/Cyclin H/MNAT1, sequence (P51946 whole entry partner): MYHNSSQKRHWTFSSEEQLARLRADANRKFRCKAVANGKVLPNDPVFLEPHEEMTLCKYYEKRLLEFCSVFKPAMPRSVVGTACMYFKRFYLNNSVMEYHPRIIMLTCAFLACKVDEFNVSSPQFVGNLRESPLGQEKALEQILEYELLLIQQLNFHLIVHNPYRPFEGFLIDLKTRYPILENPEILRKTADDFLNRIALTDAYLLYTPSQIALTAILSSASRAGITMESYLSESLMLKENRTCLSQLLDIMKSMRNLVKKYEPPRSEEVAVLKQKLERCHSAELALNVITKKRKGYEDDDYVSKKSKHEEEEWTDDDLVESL
CDK7/Cyclin H/MNAT1, sequence (P51948 whole entry partner): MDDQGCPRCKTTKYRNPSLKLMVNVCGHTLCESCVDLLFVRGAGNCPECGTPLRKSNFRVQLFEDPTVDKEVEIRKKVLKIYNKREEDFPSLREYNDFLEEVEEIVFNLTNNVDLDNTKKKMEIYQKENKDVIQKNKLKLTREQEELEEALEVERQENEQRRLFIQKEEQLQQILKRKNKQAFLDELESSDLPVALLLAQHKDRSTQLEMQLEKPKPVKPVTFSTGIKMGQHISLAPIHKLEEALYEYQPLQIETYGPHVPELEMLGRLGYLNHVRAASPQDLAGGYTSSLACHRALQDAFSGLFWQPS
Method: as §1, §2

Structure (SMILES)	IC50 [1]	IC50 (CDK2/Cyclin A)	IC50 (CDK9/Cyclin K)	IC50 (CDK7/Cyclin H/MNAT1)	CC50 at 72 h [2]
O=C(NC1CCOCC1)c1cc(-c2nc(N[C@H]3CCCNC3)ncc2C(F)(F)F)c[nH]1 [CDK7_850, N-(oxan-4-yl)-4-(2-{[(3S)-piperidin-3-yl]amino}-5-(trifluoromethyl)pyrimidin-4-yl)-1H-pyrrole-2-carboxamide]	100 to 1000 nM	> 200 nM	50 to 200 nM	5 to 50 nM	> 2000 nM
CN1CCN(C(=O)c2cc(-c3nc(N[C@H]4CCCNC4)ncc3C(F)(F)F)c[nH]2)CC1 [CDK7_539, 4-[5-(4-methylpiperazine-1-carbonyl)-1H-pyrrol-3-yl]-N-[(3S)-piperidin-3-yl]-5-(trifluoromethyl) pyrimidin-2-amine]	100 to 1000 nM	> 200 nM	50 to 200 nM	5 to 50 nM	> 2000 nM
CS(=O)(=O)CCNC(=O)c1cc(-c2nc(N[C@H]3CCCNC3)ncc2C(F)(F)F)c[nH]1 [CDK7_848, N-(2-methanesulfon-ylethyl)-4-(2-{[(3S)-piperidin-3-yl]amino}-5-(trifluoromethyl)pyrimidin-4-yl)-1H-pyrrole-2-carboxamide]	> 1000 nM	> 200 nM	5 to 50 nM	5 to 50 nM	> 2000 nM
O=C(Nc1ccncc1)c1cc(-c2nc(N[C@H]3CCCNC3)ncc2C(F)(F)F)c[nH]1 [CDK7_836, 4-(2-{[(3S)-piperidin-3-yl]amino}-5-(trifluoromethyl)pyrimidin-4-yl)-N-(pyridin-4-yl)-1H-pyrrole-2-carboxamide]	100 to 1000 nM	> 200 nM	50 to 200 nM	5 to 50 nM	500 to 2000 nM
O=C(Nc1ccccc1)c1cc(-c2nc(N[C@H]3CCCNC3)ncc2C(F)(F)F)c[nH]1 [CDK7_538, N-phenyl-4-(2-{[(3S)-piperidin-3-yl]amino}-5-(trifluoromethyl)pyrimidin-4-yl)-1H-pyrrole-2-carboxamide]	100 to 1000 nM	> 200 nM	50 to 200 nM	5 to 50 nM	500 to 2000 nM
N#Cc1ccc(NC(=O)c2cc(-c3nc(N[C@H]4CCCNC4)ncc3C(F)(F)F)c[nH]2)cc1 [CDK7_837, N-(4-cyanophenyl)-4-(2-{[(3S)-piperidin-3-yl]amino}-5-(trifluoromethyl)pyrimidin-4-yl)-1H-pyrrole-2-carboxamide]	100 to 1000 nM	> 200 nM	> 200 nM	50 to 200 nM	500 to 2000 nM
O=C(Nc1ncc[nH]1)c1cc(-c2nc(N[C@H]3CCCNC3)ncc2C(F)(F)F)c[nH]1 [CDK7_833, N-(1H-imidazol-2-yl)-4-(2-{[(3S)-piperidin-3-yl]amino}-5-(trifluoromethyl)pyrimidin-4-yl)-1H-pyrrole-2-carboxamide]	100 to 1000 nM	> 200 nM	50 to 200 nM	5 to 50 nM	500 to 2000 nM
O=C(c1cc(-c2nc(N[C@H]3CCCNC3)ncc2C(F)(F)F)c[nH]1)N1CCOCC1 [CDK7_849, 4-[5-(morpholine-4-carbonyl)-1H-pyrrol-3-yl]-N-[(3S)-piperidin-3-yl]-5-(trifluoromethyl) pyrimidin-2-amine]	10 to 100 nM	> 200 nM	50 to 200 nM	< 5 nM	500 to 2000 nM
O=C(NCC(F)(F)F)c1cc(-c2nc(N[C@H]3CCCNC3)ncc2C(F)(F)F)c[nH]1 [CDK7_847, 4-(2-{[(3S)-piperidin-3-yl]amino}-5-(trifluoromethyl)pyrimidin-4-yl)-N-(2,2,2-trifluoroethyl)-1H-pyrrole-2-carboxamide]	10 to 100 nM	> 200 nM	5 to 50 nM	5 to 50 nM	100 to 500 nM

Now from value to molecule, other results behind:

IC50 [1]	IC50 (CDK2/Cyclin A)	IC50 (CDK9/Cyclin K)	IC50 (CDK7/Cyclin H/MNAT1)	Structure (SMILES)	CC50 at 72 h [2]
100 to 1000 nM	> 200 nM	50 to 200 nM	5 to 50 nM	CN(C(=O)c1cc(-c2nc(N[C@H]3CCCNC3)ncc2C(F)(F)F)c[nH]1)c1nccs1 [CDK7_1003, N-methyl-4-(2-{[(3S)-piperidin-3-yl]amino}-5-(trifluoromethyl)pyrimidin-4-yl)-N-(1,3-thiazol-2-yl)-1H-pyrrole-2-carboxamide]	500 to 2000 nM
> 1000 nM	> 200 nM	> 200 nM	5 to 50 nM	CN(Cc1ccccc1)C(=O)c1cc(-c2nc(N[C@H]3CCCNC3)ncc2C(F)(F)F)c[nH]1 [CDK7_998, N-benzyl-N-methyl-4-(2-{[(3S)-piperidin-3-yl]amino}-5-(trifluoromethyl)pyrimidin-4-yl)-1H-pyrrole-2-carboxamide]	> 2000 nM
> 1000 nM	> 200 nM	50 to 200 nM	5 to 50 nM	O=C(NC1CCC(O)CC1)c1cc(-c2nc(N[C@H]3CCCNC3)ncc2C(F)(F)F)c[nH]1 (stereo partly drawn) [CDK7_851, N-(4-hydroxycyclo-hexyl)-4-(2-{[(3S)-piperidin-3-yl]amino}-5-(trifluoromethyl)pyrimidin-4-yl)-1H-pyrrole-2-carboxamide]	> 2000 nM
100 to 1000 nM	> 200 nM	50 to 200 nM	5 to 50 nM	O=C(NCc1ccccc1)c1cc(-c2nc(N[C@H]3CCCNC3)ncc2C(F)(F)F)c[nH]1 [CDK7_997, N-benzyl-4-(2-{[(3S)-piperidin-3-yl]amino}-5-(trifluoromethyl)pyrimidin-4-yl)-1H-pyrrole-2-carboxamide]	500 to 2000 nM
100 to 1000 nM	> 200 nM	> 200 nM	5 to 50 nM	CN(C)C(=O)c1nc(-c2nc(N[C@H]3CCCNC3)ncc2C(F)(F)F)c[nH]1 [CDK7_966, N,N-dimethyl-4-(2-{[(3S)-piperidin-3-yl]amino}-5-(trifluoromethyl)py-rimidin-4-yl)-1H-imidazole-2-carboxamide]	> 2000 nM
100 to 1000 nM	> 200 nM	50 to 200 nM	5 to 50 nM	FC(F)(F)c1cnc(N[C@H]2CCCNC2)nc1-c1cc[nH]c1 [CDK7_972, N-[(3S)-piperidin-3-yl]-4-(1H-pyrrol-3-yl)-5-(trifluoromethyl)py-rimidin-2-amine]	500 to 2000 nM
